Assay results published in patent publication US20250230154A1, “COMPOUND HAVING SHP2 PROTEIN DEGRADING ACTIVITY, AND MEDICAL USES THEREOF” (UBIX THERAPEUTICS, INC., priority 2021, published 2025).

Molecular target: T1, SHP2 protein (Homo sapiens, UniProt Q06124)
T1 sequence (Q06124 1-593): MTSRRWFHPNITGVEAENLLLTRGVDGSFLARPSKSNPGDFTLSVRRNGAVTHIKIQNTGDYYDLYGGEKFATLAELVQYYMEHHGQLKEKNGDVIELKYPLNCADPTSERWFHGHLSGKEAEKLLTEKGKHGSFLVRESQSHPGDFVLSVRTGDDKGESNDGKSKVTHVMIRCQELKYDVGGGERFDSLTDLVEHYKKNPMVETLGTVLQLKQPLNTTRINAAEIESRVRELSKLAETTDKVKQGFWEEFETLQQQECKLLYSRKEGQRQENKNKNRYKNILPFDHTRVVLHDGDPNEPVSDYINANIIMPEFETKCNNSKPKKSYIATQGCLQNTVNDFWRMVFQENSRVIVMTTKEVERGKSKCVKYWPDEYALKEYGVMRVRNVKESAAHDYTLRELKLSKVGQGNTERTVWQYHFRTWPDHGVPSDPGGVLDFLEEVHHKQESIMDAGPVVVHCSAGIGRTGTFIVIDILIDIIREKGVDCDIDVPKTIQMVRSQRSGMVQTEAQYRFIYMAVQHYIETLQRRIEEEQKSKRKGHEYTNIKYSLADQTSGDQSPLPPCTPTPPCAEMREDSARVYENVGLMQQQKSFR
Assay: Measurement of SHP2 protein degradation in MV-4-11 cells (western blotting)
Assay type: cell-based
Design: endogenous in cells; host or cells: MV-4-11
Conditions: for SHP2 degradation (%) 10 nM / SHP2 degradation (%) 100 nM / SHP2 degradation (%) 1000 nM: MV-4-11 cells, 24 hours
Outline: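 SHP2 protein levels were assessed by western blotting in MV-4-11 cells after a 24 hour compound treatment. Lysates were sonicated, centrifuged, normalized by BCA assay at 562 nm, run on Bis-tris 4-12% gels, transferred to NC membrane, probed with anti-SHPTP2 (70 kDa) and anti-GAPDH (37 kDa) antibodies, and detected on LI-COR Odyssey.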

| Compound | SHP2 degradation (%) 10 nM [%] | SHP2 degradation (%) 100 nM [%] | SHP2 degradation (%) 1000 nM [%] | SHP2 protein degradation activity (in words) (comment on Table 4) |
| --- | --- | --- | --- | --- |
| Cc1ncsc1-c1ccc(CNC(=O)[C@@H]2C[C@@H](O)CN2C(=O)[C@@H](NC(=O)C2(F)CC2)C(C)(C)C)c(OC2CC3(CCN(c4cnc(C(=O)Nc5cccc(Sc6cnc(N7CCC(C)(CN)CC7)cn6)c5Cl)nc4)CC3)C2)c1 [Example 87, N-(3-((5-(4-(aminomethyl)-4-methylpiperidin-1-yl)pyrazin-2-yl)thio)-2-chlorophenyl)-5-(2-(2-(((2S,4R)-1-((S)-2-(1-fluorocyclopropane-1-carboxamido)-3,3-dimethylbutanoyl)-4-hydroxypyrrolidine-2-carboxamido)methyl)-5-(4-methylthiazol-5-yl)phenoxy)-7-azaspiro[3.5]nonan-7-yl)pyrimidine-2-carboxamide] | 9.1 | 45.5 | – | – |
| CC(=O)N[C@H](C(=O)N1C[C@H](O)C[C@H]1C(=O)NCc1ccc(-c2scnc2C)cc1OCCC1CCN(C(=O)CC(=O)Nc2cccc(Sc3cnc(N4CCC(C)(CN)CC4)cn3)c2Cl)CC1)C(C)(C)C [Example 38, (2S,4R)-1-((S)-2-acetamido-3,3-dimethylbutanoyl)-N-(2-(2-(1-(3-((3-((5-(4-(aminomethyl)-4-methylpiperidin-1-yl)pyrazin-2-yl)thio)-2-chlorophenyl)amino)-3-oxopropanoyl)piperidin-4-yl)ethoxy)-4-(4-methylthiazol-5-yl)benzyl)-4-hydroxypyrrolidine-2-carboxamide] | 86 | 93 | 93.5 | – |
| Cc1ncsc1-c1ccc(CNC(=O)[C@@H]2C[C@@H](O)CN2C(=O)[C@@H](NC(=O)C2(F)CC2)C(C)(C)C)c(OC2CC3(CCN(C(=O)CC(=O)Nc4cccc(Sc5cnc(N6CCC(C)(CN)CC6)cn5)c4Cl)CC3)C2)c1 [Example 50, (2S,4R)—N-(2-((7-(3-((3-((5-(4-(aminomethyl)-4-methylpiperidin-1-yl)pyrazin-2-yl)thio)-2-chlorophenyl)amino)-3-oxopropanoyl)-7-azaspiro[3.5]nonan-2-yl)oxy)-4-(4-methylthiazol-5-yl)benzyl)-1-((S)-2-(1-fluorocyclopropane-1-carboxamido)-3,3-dimethylbutanoyl)-4-hydroxypyrrolidine-2-carboxamide] | 91.5 | 98.4 | – | – |
| Cc1ncsc1-c1ccc(CNC(=O)[C@@H]2C[C@@H](O)CN2C(=O)[C@@H](NC(=O)C2(F)CC2)C(C)(C)C)c(OCCN2CCN(C(=O)C(C)(C)C(=O)Nc3cccc(Sc4cnc(N5CCC(C)(CN)CC5)cn4)c3Cl)CC2)c1 [Example 59, (2S,4R)—N-(2-(2-(4-(3-((3-((5-(4-(aminomethyl)-4-methylpiperidin-1-yl)pyrazin-2-yl)thio)-2-chlorophenyl)amino)-2,2-dimethyl-3-oxopropanoyl)piperazin-1-yl)ethoxy)-4-(4-methylthiazol-5-yl)benzyl)-1-((S)-2-(1-fluorocyclopropane-1-carboxamido)-3,3-dimethylbutanoyl)-4-hydroxypyrrolidine-2-carboxamide] | −2.0 | 3.0 | – | somewhat decreased |
| Cc1ncsc1-c1ccc(CNC(=O)[C@@H]2C[C@@H](O)CN2C(=O)[C@@H](NC(=O)C2(F)CC2)C(C)(C)C)c(OCC2CCN(C(=O)CC(=O)Nc3cccc(Sc4ncc(N5CCC(C)(N)CC5)nc4N)c3Cl)CC2)c1 [Example 30, (2S,4R)—N-(2-((1-(3-((3-((3-amino-5-(4-amino-4-methylpiperidin-1-yl)pyrazin-2-yl)thio)-2-chlorophenyl)amino)-3-oxopropanoyl)piperidin-4-yl)methoxy)-4-(4-methylthiazol-5-yl)benzyl)-1-((S)-2-(1-fluorocyclopropane-1-carboxamido)-3,3-dimethylbutanoyl)-4-hydroxypyrrolidine-2-carboxamide] | 71.5 | 95.5 | – | – |
| Cc1ncsc1-c1ccc(CNC(=O)[C@@H]2C[C@@H](O)CN2C(=O)[C@@H](NC(=O)C2(F)CC2)C(C)(C)C)c(OCCN2CCN(CC(=O)Nc3cccc(Sc4cnc(N5CCC(C)(CN)CC5)cn4)c3Cl)C(=O)C2)c1 [Example 76, (2S,4R)—N-(2-(2-(4-(2-((3-((5-(4-(aminomethyl)-4-methylpiperidin-1-yl)pyrazin-2-yl)thio)-2-chlorophenyl)amino)-2-oxoethyl)-3-oxopiperazin-1-yl)ethoxy)-4-(4-methylthiazol-5-yl)benzyl)-1-((S)-2-(1-fluorocyclopropane-1-carboxamido)-3,3-dimethylbutanoyl)-4-hydroxypyrrolidine-2-carboxamide] | 94.2 | 99.5 | – | – |
| Cc1ncsc1-c1ccc(CNC(=O)[C@@H]2C[C@@H](O)CN2C(=O)[C@@H](NC(=O)C2(F)CC2)C(C)(C)C)c(OCCC2CCN(C(=O)C(=O)Nc3cccc(Sc4cnc(N5CCC(C)(CN)CC5)cn4)c3Cl)CC2)c1 [Example 27, (2S,4R)—N-(2-(2-(1-(2-((3-((5-(4-(aminomethyl)-4-methylpiperidin-1-yl)pyrazin-2-yl)thio)-2-chlorophenyl)amino)-2-oxoacetyl)piperidin-4-yl)ethoxy)-4-(4-methylthiazol-5-yl)benzyl)-1-((S)-2-(1-fluorocyclopropane-1-carboxamido)-3,3-dimethylbutanoyl)-4-hydroxypyrrolidine-2-carboxamide] | 23.5 | 72 | 91.5 | – |
| Cc1ncsc1-c1ccc(CNC(=O)[C@@H]2C[C@@H](O)CN2C(=O)[C@@H](NC(=O)C2(F)CC2)C(C)(C)C)c(OCCOc2cnc(N3CCC(CCCC(=O)Nc4cccc(Sc5cnc(N6CCC(C)(CN)CC6)cn5)c4Cl)CC3)nc2)c1 [Example 90, (2S,4R)—N-(2-(2-((2-(4-(4-((3-((5-(4-(aminomethyl)-4-methylpiperidin-1-yl)pyrazin-2-yl)thio)-2-chlorophenyl)amino)-4-oxobutyl)piperidin-1-yl)pyrimidin-5-yl)oxy)ethoxy)-4-(4-methylthiazol-5-yl)benzyl)-1-((S)-2-(1-fluorocyclopropane-1-carboxamido)-3,3-dimethylbutanoyl)-4-hydroxypyrrolidine-2-carboxamide] | 6 | 97 | 98 | – |
| Cc1ncsc1-c1ccc(CNC(=O)[C@@H]2C[C@@H](O)CN2C(=O)[C@@H](NC(=O)C2(F)CC2)C(C)(C)C)c(OCCCC2CCN(C(=O)CC(=O)Nc3cccc(Sc4ncc(N5CCC(C)(N)CC5)nc4N)c3Cl)CC2)c1 [Example 40, (2S,4R)—N-(2-(3-(1-(3-((3-((3-amino-5-(4-amino-4-methylpiperidin-1-yl)pyrazin-2-yl)thio)-2-chlorophenyl)amino)-3-oxopropanoyl)piperidin-4-yl)propoxy)-4-(4-methylthiazol-5-yl)benzyl)-1-((S)-2-(1-fluorocyclopropane-1-carboxamido)-3,3-dimethylbutanoyl)-4-hydroxypyrrolidine-2-carboxamide] | 67.0 | 95.0 | – | – |
| Cc1ncsc1-c1ccc(CNC(=O)[C@@H]2C[C@@H](O)CN2C(=O)[C@@H](NC(=O)C2(F)CC2)C(C)(C)C)c(OC2CC3(CCN(c4ccc(C(=O)Nc5cccc(Sc6cnc(N7CCC(C)(CN)CC7)cn6)c5Cl)nn4)CC3)C2)c1 [Example 88, N-(3-((5-(4-(aminomethyl)-4-methylpiperidin-1-yl)pyrazin-2-yl)thio)-2-chlorophenyl)-6-(2-(2-(((2S,4R)-1-((S)-2-(1-fluorocyclopropane-1-carboxamido)-3,3-dimethylbutanoyl)-4-hydroxypyrrolidine-2-carboxamido)methyl)-5-(4-methylthiazol-5-yl)phenoxy)-7-azaspiro[3.5]nonan-7-yl)pyridazine-3-carboxamide] | 16.5 | 66.1 | – | – |
| Cc1ncsc1-c1ccc(CNC(=O)[C@@H]2C[C@@H](O)CN2C(=O)[C@@H](NC(=O)C2(F)CC2)C(C)(C)C)c(OCCC2CCN(C(=O)CC(=O)Nc3cccc(Sc4ncc(N5CCC(C)(CN)CC5)nc4N)c3Cl)CC2)c1 [Example 37, (2S,4R)—N-(2-(2-(1-(3-((3-((3-amino-5-(4-(aminomethyl)-4-methylpiperidin-1-yl)pyrazin-2-yl)thio)-2-chlorophenyl)amino)-3-oxopropanoyl)piperidin-4-yl)ethoxy)-4-(4-methylthiazol-5-yl)benzyl)-1-((S)-2-(1-fluorocyclopropane-1-carboxamido)-3,3-dimethylbutanoyl)-4-hydroxypyrrolidine-2-carboxamide] | 80.5 | 89.5 | 90.5 | – |
